Assay in all cases: NCI-60 cell line screen, 48 h
Test [1] concerns SF-295.
For test [2], the system named is RXF 393.
In test [3] the test system is OVCAR-5.
Test [4] has as its system EKVX.
Test [5] has as its system UO-31.
The subject of test [6] is SR.
Test [7] relates to NCI-H226.
Test [8] concerns HCT-116.
The test system of test [9] is Malme-3M.
For test [10], the system named is SK-MEL-2.
For test [11], the system named is U-251.
Test [12] concerns SN12C.
For test [13], the system named is OVCAR-3.
Test [14] deals with HCC 2998.
In test [15] the test system is SNB-75.
Test [16] deals with NCI-H522.
The subject of test [17] is DU-145.
The subject of test [18] is MDA-MB-435.
Test [19] concerns Hs-578T.
Test [20] concerns CAKI-1.

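Dose response: 5 concentrations. Exposure: 48 h. Format: 96-well plates. Endpoint: linear interpolation; highest concentration if not reached. The concentration for 50% growth inhibition is given as GI50.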 The source made the active and inactive calls. Cut-off read from the data, not from the text of the source: active = GI50 up to about 1.1 µM and inactive = higher.

Consider ten compounds from ChEMBL document CHEMBL1201862, “PubChem BioAssay data set” (2004).

As for `COc1cc(/C=N/N=C2NCCN2)ccc1O`, the GI50 was 68.5 µM (inactive) in test [1]; > 100 µM (inactive) in [2]; > 100 µM (inactive) in test [3]; > 100 µM (inactive) in test [4]; > 100 µM (inactive) in test [5]; > 100 µM (inactive) in test [6]. The GI50 in test [7], in [8], in test [9], in [10], in [11] and in [12] was > 100 µM (inactive) in each case. Further, the GI50 in [13], in test [14], in test [15], in test [16], in test [17] and in [18] was > 100 µM (inactive) throughout. In addition, in [19], the GI50 was > 100 µM (inactive).
For the compound `NC(=S)N1N=C2c3ccccc3CCC[C@H]2[C@@H]1c1ccccc1`, the GI50 is 1.03 µM (active) in [1]; 1.7 µM (inactive) in [2]; 9.57 µM (inactive) in [3]; 9.23 µM (inactive) in test [4]; 1.9 µM (inactive) in test [5]; 0.249 µM (active) in test [6]. The GI50 is 2.6 µM (inactive) in test [7]; 1.26 µM (inactive) in [8]; 0.488 µM (active) in test [9]; 0.236 µM (active) in test [10]; 2.33 µM (inactive) in test [11]; 2.52 µM (inactive) in test [12]. Further, the GI50 in test [13] is 0.661 µM (active); in test [14] it was 1.99 µM (inactive); in [15], 0.211 µM (active); in [16], 0.361 µM (active); in test [17] it was 1.54 µM (inactive); in test [18], 0.0977 µM (active). Besides, in test [19], the GI50 is 0.552 µM (active).
Regarding `C=C(C)[C@@H]1CCC2=C(CC[C@]3(C)[C@@H]([C@@H](CCC=C(C)C)C(=O)O)[C@H](O)C[C@@]23C)[C@@]1(C)CCC(=O)O` [PORICOIC ACID G], the GI50 was 50.4 µM (inactive) in test [1]; 41.4 µM (inactive) in test [2]; 45.4 µM (inactive) in test [3]; 44.6 µM (inactive) in test [4]; > 100 µM (inactive) in [5]; 29.4 µM (inactive) in test [6]. Further, the GI50 is 57.3 µM (inactive) in [7]; 54.1 µM (inactive) in test [8]; > 100 µM (inactive) in test [9]; 83.6 µM (inactive) in test [20]; 70.3 µM (inactive) in [10]; 22.4 µM (inactive) in test [11]. Moreover, the GI50 in test [12] is 52.4 µM (inactive); in [13] it was > 100 µM (inactive); in [15] it was 60.5 µM (inactive); in [16], 44.2 µM (inactive); in test [17] it was > 100 µM (inactive); in test [18] it was > 100 µM (inactive). Also, the GI50 in test [19] was > 100 µM (inactive).
In the case of `COc1ccc(C(=O)/C=C/c2ccc(OCC#N)cc2)cc1OC`, the GI50 is > 10 µM (inactive) in [1]; 13.2 µM (inactive) in test [2]; > 10 µM (inactive) in [3]; 14.9 µM (inactive) in [4]; 18 µM (inactive) in test [5]; 11.8 µM (inactive) in test [6]. For the same compound, the GI50 was 19.5 µM (inactive) in [7]; 5.09 µM (inactive) in test [8]; 20.9 µM (inactive) in test [9]; 17.4 µM (inactive) in [20]; 14.3 µM (inactive) in test [11]; 16.4 µM (inactive) in [12]. The GI50 in [13] is 21.2 µM (inactive); in test [14], 18.2 µM (inactive); in test [15], 3.72 µM (inactive); in test [16], 16.8 µM (inactive); in test [17], 11.6 µM (inactive); in test [18], 17.5 µM (inactive). Also, in test [19], the GI50 is 27.4 µM (inactive).
With `COc1cc(CNc2nc3ccccc3nc2-c2cccs2)cc(OC)c1OC`, the GI50 in test [1] is 33.5 µM (inactive); in [2], 14 µM (inactive); in test [3] it was 4.19 µM (inactive); in [4] it was 29.6 µM (inactive); in test [5] it was 5.09 µM (inactive); in test [6], 6.87 µM (inactive). For the same compound, the GI50 in test [7] was 29.5 µM (inactive); in test [8], 22.9 µM (inactive); in [9] it was 17.9 µM (inactive); in [20], 11.2 µM (inactive); in test [11], 27.6 µM (inactive); in test [12], 12.9 µM (inactive). Moreover, the GI50 in test [13] is 22.6 µM (inactive); in test [14], 39.1 µM (inactive); in [15], > 100 µM (inactive); in [16], 14 µM (inactive); in test [17] it was 44.4 µM (inactive); in test [18], 21.7 µM (inactive). In test [19], the GI50 was 12.6 µM (inactive).
For `OCSc1nn(CO)c(=S)s1`, the GI50 is 26.9 µM (inactive) in test [1]; 16.9 µM (inactive) in test [2]; 48.1 µM (inactive) in test [3]; 33.7 µM (inactive) in test [4]; 0.0643 µM (active) in [6]; 31.6 µM (inactive) in [7]. Also, the GI50 was 24.2 µM (inactive) in test [8]; 22.5 µM (inactive) in test [9]; 31.1 µM (inactive) in [20]; 23 µM (inactive) in test [10]; 23.8 µM (inactive) in test [11]; 21.2 µM (inactive) in [12]. Besides, the GI50 was 24 µM (inactive) in [13]; 22.1 µM (inactive) in test [14]; 24.4 µM (inactive) in test [15]; 17 µM (inactive) in test [16]; 23.8 µM (inactive) in test [17]; 18.4 µM (inactive) in [18]. Besides, the GI50 in test [19] is 14.3 µM (inactive).
As to `CN1CCc2[nH]nc(-c3n[nH]c4c3CN(C)CC4)c2C1`, the GI50 in test [1], in [2], in test [3], in [4], in test [5] and in test [6] was > 100 µM (inactive) each time. The GI50 in [7], in test [8], in test [9], in test [20], in test [10] and in test [11] was > 100 µM (inactive) in each case. Further, the GI50 in test [12], in test [13], in test [14], in test [16], in [17] and in [18] was > 100 µM (inactive) each time. In addition, the GI50 in test [19] was > 100 µM (inactive).
On to `C=CCc1cccc2cc(C(=O)NC3CCCCC3)c(=N)oc12`, for which the GI50 in [2] is 31.4 µM (inactive); in test [3], 17.9 µM (inactive); in test [4], > 100 µM (inactive); in test [6], 63.8 µM (inactive); in test [7], 20.1 µM (inactive); in test [8] it was 13.9 µM (inactive). For the same compound, the GI50 was > 100 µM (inactive) in test [9]; 16.8 µM (inactive) in test [20]; 3.98 µM (inactive) in [10]; 27.2 µM (inactive) in test [11]; 14.9 µM (inactive) in [12]; 14.1 µM (inactive) in test [13]. For the same compound, the GI50 is 16.3 µM (inactive) in [14]; 15.8 µM (inactive) in [15]; > 100 µM (inactive) in test [16]; 16.1 µM (inactive) in test [17]; 20.7 µM (inactive) in test [18]; 11.3 µM (inactive) in test [19].
On to `COC(C/C(=C/CO[Si](C(C)C)(C(C)C)C(C)C)C(=O)Nc1ccccc1I)OC`, for which the GI50 is 8.63 µM (inactive) in test [1]; 2.39 µM (inactive) in test [2]; 24 µM (inactive) in test [3]; 36.6 µM (inactive) in test [5]; 7.5 µM (inactive) in test [6]; 28.5 µM (inactive) in [7]. For the same compound, the GI50 was 8.97 µM (inactive) in test [8]; 0.0676 µM (active) in [9]; 22.2 µM (inactive) in test [20]; 15.2 µM (inactive) in test [10]; 28 µM (inactive) in [11]; 26.9 µM (inactive) in test [12]. The GI50 was 21.8 µM (inactive) in test [13]; 16.4 µM (inactive) in test [14]; 88.1 µM (inactive) in test [15]; 1.53 µM (inactive) in [16]; 13 µM (inactive) in [17]; 26.7 µM (inactive) in test [18]. Also, the GI50 in test [19] is 29.6 µM (inactive).
With `O=C(C/C(=N/O)c1cc(-c2ccccc2)no1)c1ccccc1`, the GI50 was 33.7 µM (inactive) in test [1]; 19.8 µM (inactive) in test [2]; > 100 µM (inactive) in test [3]; 33.8 µM (inactive) in test [4]; 26.4 µM (inactive) in [5]; 13.6 µM (inactive) in test [6]. For the same compound, the GI50 is 20.8 µM (inactive) in [7]; 20.4 µM (inactive) in test [8]; 41.4 µM (inactive) in test [9]; 36.6 µM (inactive) in test [20]; 26.1 µM (inactive) in test [10]; 28.6 µM (inactive) in [11]. Moreover, the GI50 is 38.7 µM (inactive) in test [12]; 23.2 µM (inactive) in test [13]; > 100 µM (inactive) in [14]; 18.7 µM (inactive) in test [16]; > 100 µM (inactive) in test [17]; > 100 µM (inactive) in test [18]. Besides, in test [19], the GI50 was 26.2 µM (inactive).
